Measurements from patent US8338432B2, “Derivatives of 6,7-dihydro-3H-oxazolo[3,4-a]pyrazine-5,9-dione as PDE-5 inhibitors” (Biolab Sanus Farmaceutica Ltda., priority 2010, dated 2012).
Read-outs that look alike come from different tables or passages of the source.

Legend:
rabbit corpus cavernosum = assay: Relaxation of noradrenaline-contracted rabbit isolated corpus cavernosum (isometric tension recording)
Procedure: (§1) Male New Zealand White rabbits (2-2.5 kg) were used for penis and pulmonary artery tissues, which were excised and transferred to ice-cold Kreb's solution. Two strips and four rings were obtained from each corpus cavernosum (CC) and pulmonary artery, respectively. Cavernosal strips, pulmonary artery, and urether were mounted in 10 ml organ chambers containing Kreb's solution at 37° C., pH 7.4 continuously bubbled with a mixture of 95% O2 and 5% CO2. The tissues were stretched to a resting force of 5 mN and allowed to equilibrate for 60 min. Changes in isometric force were recorded using a PowerLab 4/30 data acquisition system (Chart software, version 7.0; ADInstruments, Colo. Springs, Colo.). Cumulative concentration-response curves to compound 2 (named BL 106 in FIGS. 1, 2 and 3) (0.001-10 μM) were obtained in cavernosal strips, pulmonary artery rings, and urether contracted with noradrenaline (NOR 10 μM) (Sigma, St. Louis, Mo.). Concentration response curves to compound 2 (denoted BL 106 in FIGS. 1, 2 and 3) were constructed for each sample. For pulmonary artery, concentration response curves to compound 2 were also constructed in the presence or absence of the soluble guanylate cyclase inhibitor 1H-[1,2,4]Oxadiazolo[4,3-a]quinoxalin-1-one (ODQ 10 μM) (Sigma, St. Louis, Mo.). Control rings (treated with 40 mM DMSO) were also ran in parallel with experimental strips and rings. Noradrenaline (3 or 10 μM) caused a sustained contraction in rabbit corpus cavernosum (13.8 mN).

rabbit pulmonary artery = assay: Relaxation of noradrenaline-contracted rabbit isolated pulmonary artery rings (isometric tension recording)
Procedure: Male New Zealand White rabbits (2-2.5 kg) were used for penis and pulmonary artery tissues, which were excised and transferred to ice-cold Kreb's solution. Two strips and four rings were obtained from each corpus cavernosum (CC) and pulmonary artery, respectively. Cavernosal strips, pulmonary artery, and urether were mounted in 10 ml organ chambers containing Kreb's solution at 37° C., pH 7.4 continuously bubbled with a mixture of 95% O2 and 5% CO2. The tissues were stretched to a resting force of 5 mN and allowed to equilibrate for 60 min. Changes in isometric force were recorded using a PowerLab 4/30 data acquisition system (Chart software, version 7.0; ADInstruments, Colo. Springs, Colo.). Cumulative concentration-response curves to compound 2 (named BL 106 in FIGS. 1, 2 and 3) (0.001-10 μM) were obtained in cavernosal strips, pulmonary artery rings, and urether contracted with noradrenaline (NOR 10 μM) (Sigma, St. Louis, Mo.). Concentration response curves to compound 2 (denoted BL 106 in FIGS. 1, 2 and 3) were constructed for each sample. For pulmonary artery, concentration response curves to compound 2 were also constructed in the presence or absence of the soluble guanylate cyclase inhibitor 1H-[1,2,4]Oxadiazolo[4,3-a]quinoxalin-1-one (ODQ 10 μM) (Sigma, St. Louis, Mo.). Control rings (treated with 40 mM DMSO) were also ran in parallel with experimental strips and rings. Noradrenaline (3 or 10 μM) caused a sustained contraction in the rabbit pulmonary artery (17.4 mN).

human urether tissue = assay: Relaxation of noradrenaline-contracted human isolated urether tissue (isometric tension recording); settings: human urether contracted with noradrenaline, 0.0001-1 μM, n=3
Procedure: (§2) Human corpus cavernosum and urether were obtained from discarded tissues from surgeries, which were placed in ice-cold Krebs solution for rapid transport to the laboratory.
as §1, with “Cavernosal” for “Male New Zealand White rabbits (2-2.5 kg) were used for penis and pulmonary artery tissues, which were excised and transferred to ice-cold Kreb's solution. Two strips and four rings were obtained from each corpus cavernosum (CC) and pulmonary artery, respectively. Cavernosal”, “rings.” for “rings. Noradrenaline (3 or 10 μM) caused a sustained contraction in rabbit corpus cavernosum (13.8 mN).”
Noradrenaline caused a sustained contraction in the human urether tissue.

human corpus cavernosum = assay: Relaxation of noradrenaline-contracted human isolated corpus cavernosum (isometric tension recording); settings: human corpus cavernosum contracted with noradrenaline, 0.0001-1 μM, n=3
Procedure: as §2
as §1, with “Cavernosal” for “Male New Zealand White rabbits (2-2.5 kg) were used for penis and pulmonary artery tissues, which were excised and transferred to ice-cold Kreb's solution. Two strips and four rings were obtained from each corpus cavernosum (CC) and pulmonary artery, respectively. Cavernosal”, “rings.” for “rings. Noradrenaline (3 or 10 μM) caused a sustained contraction in rabbit corpus cavernosum (13.8 mN).”
Noradrenaline caused a sustained contraction in the human corpus cavernosum.

[1] = read-out: pEC50 of relaxation (converted)

Row | EC50 (rabbit corpus cavernosum; Oryctolagus cuniculus, rabbit corpus cavernosum contracted with noradrenaline, n=3, read-out: EC50 of relaxation (bracketed after pEC50) (converted)) | EC50 (rabbit corpus cavernosum; Oryctolagus cuniculus, rabbit corpus cavernosum contracted with noradrenaline, n=3, read-out: pEC50 of relaxation (converted)) | EC50 (rabbit pulmonary artery; Oryctolagus cuniculus, rabbit pulmonary artery rings contracted with noradrenaline, 0.001-10 μM, n=3, read-out: pEC50 of relaxation (converted)) | EC50 (rabbit pulmonary artery; Oryctolagus cuniculus, rabbit pulmonary artery rings contracted with noradrenaline, n=3, read-out: EC50 of relaxation (bracketed after pEC50) (converted)) | EC50 (human urether tissue; [1]) | EC50 (human corpus cavernosum; [1]) | SMILES | Emax (rabbit corpus cavernosum; Oryctolagus cuniculus, rabbit corpus cavernosum contracted with noradrenaline, n=3) | Emax (rabbit pulmonary artery; Oryctolagus cuniculus, rabbit pulmonary artery rings contracted with noradrenaline, 0.001-10 μM, n=3) | Emax (human urether tissue) | Emax (human corpus cavernosum) | sustained contraction (rabbit corpus cavernosum; rabbit corpus cavernosum, noradrenaline 3 or 10 μM) | sustained contraction (rabbit pulmonary artery; rabbit pulmonary artery, noradrenaline 3 or 10 μM)
1 | 1200 nM | 1200 nM | 589 nM | 588 nM | 513 nM | 22.4 nM | CN1CC(=O)N2C(=C(c3c[nH]c4ccccc34)OC2c2ccc3c(c2)OCO3)C1=O (racemic) [Compound 2, (R,S)-3-(1,3-benzodioxol-5-yl)-1-(1H-indol-3-yl)-7-methyl-6,7-dihydro[1,3]oxazolo[3,4-a]pyrazine-5,8-dione] | 91% | 62% | 49% | 71% |  | 
2 |  |  |  |  |  |  | NC[C@H](O)c1ccc(O)c(O)c1 [Noradrenaline, noradrenaline, reference compound] |  |  |  |  | 13.8 mN | 17.4 mN
